From patent US10617664B2, “Brain derived PPARα ligands” (Rush University Medical Center, priority 2015, dated 2020)

Columns and labels:
Assay type in all cases: cell-based, mouse
NR2A, GluR1 and CREB = assay: Immunoblot and immunofluorescence of synaptic molecules in Ppara-null hippocampal neurons; details: 5 μM HEX, 5 μM OCT, 50 μM HMB
Procedure: (FIG. 17A) Immunoblot analyses followed by densitometric analyses of NR2A (FIG. 17B), GluR1 (FIG. 17C) and CREB (FIG. 17D) were performed in Ppara-null and WT hippocampal neurons treated with 5 μM HEX, 5 μM OCT and 50 μM HMB. Data are mean±SD of three different experiments. ^ap<0.05 versus WT-control. Immunocytochemical analyses of NR2A (FIG. 17E) and GluR1 (FIG. 17F) in WT and Ppara-null hippocampal neurons treated with HEX, OCT and HMB. Hippocampal neurons were transduced with lenti-GFP for 48 h followed by treatment with different ligands. Immunoblot analyses followed by relative densitometric analyses of CREB in Ppara-null hippocampal neurons transduced with lentivirions containing different Ppara constructs followed by treatment with HEX (FIG. 17G-H), OCT (FIG. 17I-J) and HMB (FIG. 17K-L). Bands were scanned and presented as relative to control (FIG. 17H, HEX; FIG. 17J, OCT; FIG. 17L, HMB). Data are mean±SD of three different experiments. ^ap<0.05 vs FLPpara control.
Isolation of Mouse Hippocampal Neurons: Hippocampal neurons were isolated from fetuses (E18) of pregnant female Ppara-null and strain-matched WT littermate mice as described by us^6,13,35-36 with some modifications. Briefly, dissection and isolation procedures were performed in an ice-cold, sucrose buffer solution (sucrose 0.32 M, Tris 0.025 M; pH 7.4)^37. The skin and the skull were carefully removed from the brain by scissors followed by peeling off the meninges by a pair of fine tweezers. Next, a fine incision was made in the middle line around the circle of Willis and medial temporal lobe was opened up. Hippocampus was isolated as a thin slice of tissue located near the cortical edge of medial temporal lobe. Hippocampal tissues isolated from all fetal pups (n>10) were combined together and homogenized with 1 ml of trypsin for 5 minutes at 37° C. followed by neutralization of trypsin. The single cell suspension of hippocampal tissue was plated in the poly-D-lysine pre-coated 75 mm flask. Five min after plating, the supernatants were carefully removed and replaced with complete neurobasal media. The next day, 10 μM AraC was added to remove glial contamination in the neuronal culture. The pure cultures of hippocampal neurons were allowed to differentiate fully for 9-10 days before treatment^35,36,38.
For whole-cell and tissue lysates, samples were homogenized in RIPA buffer containing protease and phosphatase inhibitors (Sigma), passed 10 times through a 26-gauge needle, rotated end over end for 30 min at 4° C., and centrifuged for 10 min at 18,000×g. The supernatant was aliquoted and stored at −80° C. until use. Protein concentrations were determined using a NanoDrop 2000 (Thermo Fisher), and 15-30 μg sample was heat-denatured and resolved on 10% or 12% polyacrylamide-SDS gels, transferred to 0.45 μm nitrocellulose membranes under semidry conditions (15V for 12 min). Membranes were blocked for 1 h with blocking buffer (Li-Cor), incubated with primary antibodies overnight at 4° C. under shaking conditions, washed, incubated with IR-dye-labeled secondary antibodies (1:17,000; Li-Cor) for 45 min at room temperature, washed, and visualized with the Odyssey Infrared Imaging System (Li-Cor). Blots were converted to grayscale and then binary, analyzed using Fiji, and normalized to appropriate loading controls.

[1] = test system: NMDA-driven calcium influx; assay: NMDA-driven calcium influx in transduced Ppara-null hippocampal neurons
Procedure: Ppara-null hippocampal neurons were transduced with lentivirions containing GFP (vector), FL-Ppara, and Y464D-Ppara for 48 h followed by treatment with vehicle (DMSO) (FIG. 11A), OCT (FIG. 11B), HEX (FIG. 11C), HMB (FIG. 11D), and WY14643 (FIG. 11E) for 24 h. Then neurons were stained for phalloidin to measure spine density. FIG. 11F) A representative picture of dendrite with spines (Cyan color) used for counting area of spine heads. Area of spine heads (FIG. 11G) and number of spines (FIG. 11H) in 10 μm of dendrites. Results are mean±SEM of 5 neurons per group. ^ap<0.05 vs vector only; ^bp<0.05 vs FL-Ppara. AMPA-driven calcium influx was measured in OCT (red), HEX (green) and HMB (purple)-treated Ppara-null hippocampal neurons transduced with lentivirions containing FL-Ppara (FIG. 11I), Y314D-Ppara (FIG. 11J), Y464D-Ppara (FIG. 11K), and Y314D/Y464D-Ppara (FIG. 11L). All neurons were treated with 50 μM of NMDA receptor antagonist N20C to inhibit passive calcium flow through NMDA receptor. (FIG. 11M-P) Similarly NMDA-driven calcium influx was measured in the lentivius-infected Ppara-null hippocampal neurons in the presence of different endogenous ligands. In these cases, Naspm-HCl was treated to stop the passive flow of calcium currents through AMPA receptor. Results are mean of three independent experiments.

astrocytes = assay: MTT cell viability in PPRE-luciferase transfected astrocytes; details: higher concentrations
Procedure: Astrocytes plated at 60-70% confluence were transfected with tk-PPREx3-Luc, a PPRE-dependent luciferase reporter construct. After 24 h of transfection, cells were treated with different concentrations of HEX (FIG. 10A), OCT (FIG. 10B) and HMB (FIG. 10C) for 4 h followed by monitoring luciferase activity. Under similar experimental condition, MTT was performed to understand the effect of these ligands on cell viability (FIG. 10D, HEX; FIG. 10E, OCT; FIG. 10F, HMB). Results are mean±SD of three independent experiments. ^ap<0.001 vs. control. Ppara-null astrocytes were transduced with lentivirions containing empty vector (FIG. 10G), FL-Ppara (FIG. 10H), Y314D-Ppara (FIG. 10I), Y464D-Ppara (FIG. 10J), and Y314D/Y464D-Ppara (FIG. 10K) for 48 h followed by transfection with tk-PPREx3-Luc. After 24 h of transfection, cells were treated with different doses of HEX, OCT and HMB for 4 h followed by monitoring luciferase activity. PPRE luciferase activity was assayed in Ppara-null astrocytes transduced with lentivirions containing empty vector (FIG. 10L), FL-Ppara (FIG. 10M), Y314D-Ppara (FIG. 10N), Y464D-Ppara (FIG. 10O), and Y314D/Y464D-Ppara (FIG. 10P) after treatment with different doses of WY14643, fenofibrate, and clofibrate. PPRE luciferase activity was assayed in primary hippocampal neurons transduced with lentivirions containing empty vector (FIG. 10Q), FL-Ppara (FIG. 10R), Y314D-Ppara (FIG. 10S), Y464D-Ppara (FIG. 10T), and Y314D/Y464D-Ppara (FIG. 10U) after treatment with different doses of HEX, OCT and HMB. Results are mean±SD of three independent experiments. ^ap<0.001 vs. control.

Row | Structure (SMILES) | expression of CREB (NR2A, GluR1 and CREB) | expression of NR2A (NR2A, GluR1 and CREB) | NMDA-mediated calcium influx ([1]; lenti-FL-Ppara) | NMDA-mediated calcium influx ([1]; lenti-Y314D-Ppara) | NMDA-mediated calcium influx ([1]; lenti-Y314D/Y464D-Ppara) | NMDA-mediated calcium influx ([1]; lenti-Y464D-Ppara) | cytotoxicity (MTT) (astrocytes)
1 | CCCCCCCCCCCCCCCC(N)=O [HEX, hexadecanamide] | not | not | stimulated | partially restore | remained unable to increase | remained unable to increase | significant level of cytotoxicity
2 | CCOC(=O)C(C)(C)C(C)O (stereo not drawn) [HMB] | not | not | stimulated | partially restore | remained unable to increase | remained unable to increase | significant level of cytotoxicity
3 | CCCCCCCCC=CCCCCCCCC(N)=O [OCT, 9-octadecenamide] | not | not | stimulated | partially restore | remained unable to increase | remained unable to increase | significant level of cytotoxicity
